Reference: US6358884B1, “Bacteriocidal and fungicidal solution containing inorganic silver complex salt and process for producing the same” (Sumitomo Metal Mining Co., Ltd., priority 1997, dated 2002)

Experiments:
[1] = test system: fungi; conditions: according to "Metal", vol. 65 (1995), No. 11; cited from earlier work
[2] = test system: bacteria; conditions: according to "Metal", vol. 65 (1995), No. 11; cited from earlier work
[3] = test system: Staphylococcus aureus; assay: Bacteriocidal test for Staphylococcus aureus (sprayed filter paper, plate culture); assay type: cell-based
Protocol: Using the same aqueous solution containing silver as the chloro complex salt as in Example 1 above a bacteriocidal effect to Staphylococcus aureus was evaluated. As a comparison, a bacteriocidal test was conducted in the same manner by using a sterilizing ethanol as a bacteriocidal agent instead of the aqueous solution described above. The evaluation method is as shown below.
Each of the test specimen solutions was sprayed each about by 1 g as the bacteriocidal agent do so as to be substantially uniform by using a spray on 5A filter paper of 11 cm diameter and then each filter paper was left in a room with no air conditioning facility at a room temperature for 24 hours. Subsequently, a bacteria solution adjusted to a cell number of 7×10^4 N/ml by a preliminary test was dropped each by 1 ml by using a micro-pipette to each filter paper and further left in a room with no air conditioning facility at a room temperature for 24 hours.
Then, each filter paper was transferred to a sterilized cup, and vigorously shaken for 2 min by a shaker with addition of 100 ml of water. Subsequently, 1 ml of a test solution was sampled from each of sterilized cups, subjected to plate culture at 36° C. for 72 hours each with addition of ordinary agar culture medium, and the number of colonies formed was counted.
Further as a blank test, 1 ml of a solution diluted by 100 times from the bacterial solution described above (the number of cells about 7×10^4 N/ml) was sampled to a Shale without using the bacteriocidal agent, cultivated in the same manner as described above with addition of a usual agar medium, and the number of formed colonies was counted.

Compound	concentration showing slow releasing fungicidal effect [1] [mg/L]	concentration showing slow releasing bacteriocidal effect [2] [mg/L]	Number of cells in Shale ([3]; about 1 g sprayed on filter paper, 1 ml bacteria solution 7×10^4 N/ml, 24 h, plate culture 36° C. 72 hours)	colonies in the Shale ([3]; cultivation time of 48 hours)	Number of cells per filter paper ([3]; per filter paper (1 ml of bacterial solution), plate culture 36° C. 72 hours)	Increase/decrease ratio for Number of cell ([3]; ratio to the number of cells dropped to filter paper (7×10^4 N/ml), 72 hours cultivation) [%]
silver ions	≥ 0.5	≥ 0.05				
CCO [Sterilizing ethanol, ethanol]			507	colonies were already formed	5.1 × 10^4	72.9
